The target of this test is T1, human SGLT1 (hSGLT1) (Homo sapiens, UniProt P13866).
T1 construct: gene SLC5A1; Full length human SGLT1 (NP_000334)
T1 sequence (P13866 1-664): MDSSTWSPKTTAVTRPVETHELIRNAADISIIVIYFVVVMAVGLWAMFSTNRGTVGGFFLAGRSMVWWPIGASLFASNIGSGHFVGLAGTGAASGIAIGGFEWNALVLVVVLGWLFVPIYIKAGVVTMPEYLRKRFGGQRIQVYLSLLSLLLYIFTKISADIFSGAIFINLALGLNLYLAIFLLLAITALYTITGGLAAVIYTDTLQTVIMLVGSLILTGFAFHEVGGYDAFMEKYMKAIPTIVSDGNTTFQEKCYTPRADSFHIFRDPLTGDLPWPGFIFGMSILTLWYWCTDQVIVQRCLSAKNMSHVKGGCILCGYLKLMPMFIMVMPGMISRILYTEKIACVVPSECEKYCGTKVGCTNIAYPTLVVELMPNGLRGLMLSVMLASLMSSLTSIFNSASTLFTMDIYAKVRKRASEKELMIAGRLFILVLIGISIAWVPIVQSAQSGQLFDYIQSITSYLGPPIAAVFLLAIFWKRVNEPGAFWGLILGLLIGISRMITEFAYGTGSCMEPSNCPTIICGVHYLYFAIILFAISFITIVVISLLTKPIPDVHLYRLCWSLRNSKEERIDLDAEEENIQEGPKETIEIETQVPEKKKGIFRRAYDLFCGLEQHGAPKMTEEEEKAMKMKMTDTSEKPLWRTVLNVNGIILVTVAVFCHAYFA
The test is described as follows: FLIPR membrane potential assay in CHO cells transiently expressing hSGLT1; mock-transfected cells did not respond. It is filed as cell-based.

As for `OC[C@H]1OC(O)[C@H](O)[C@@H](O)[C@@H]1O` (stereo partly drawn) [D-glucose], the EC50 – broadly, the concentration giving half of the maximal effect – turned out to be 452 µM.
